{
  "source": "paper PMC12073159",
  "about": "“Inhibition Mechanism of Mulberry Prenylated Flavonoids Sanggenone D/Kuwanon G Against α-Glucosidase and the Regulation of Glucose via GLUT4 Pathway” (Nutrients, 2025)",
  "key": {"α-glucosidase [1]": {"target": "α-glucosidase", "settings": "cited from earlier work"}, "α-glucosidase [2]": {"target": "α-glucosidase", "test": "α-glucosidase inhibitory activity (p-NPG, absorbance at 405 nm)", "format": "biochemical", "settings": "1 U/mL α-glucosidase, pH 6.8, 37 °C, p-NPG substrate; read-out: IC50 (semi-inhibitory concentration)", "experimental": "Subsequently, 50 μL of 2 mmol/L p-NPG was added, and the mixture was incubated at 37 °C for 20 min. Finally, 50 μL of 1 mol/L Na2CO3 was added to an ice bath for 5 min to terminate the reaction. The absorbance was measured at 405 nm, and the α-glucosidase inhibitory activity was calculated according to Formula (1). All experiments were performed in triplicate.(1) Inhibition rate of enzyme activity/%=(1−Aa−Ab/Ac−Ad)×100%\nAa is the absorbance of the sample group, Ab is the absorbance of the sample background group (equal volume of buffer instead of enzyme solution), Ac is the absorbance of the control group (equal volume of buffer instead of the sample solution), and Ad is the absorbance of the control background group (equal volume of buffer instead of the sample and enzyme solution)."}, "α-glucosidase [3]": {"system": "α-glucosidase", "test": "Inhibition kinetics assay (Lineweaver–Burk)", "format": "biochemical", "settings": "for Inhibition type: Lineweaver–Burk plots; for pKi: inhibitory constant on α-glucosidase", "experimental": "The inhibition assay of α-glucosidase was adapted from MORTEZA, with some modification. A total of 50 μL of α-glucosidase solution (1 U/mL) was added to 96-well plates, and 50 μL of sample solution with different concentrations (sanggenone D: 0, 20, 100, 200 μg/mL; kuwanon G: 0, 10, 20, 40 μg/mL) was incubated at 37 °C for 10 min. Subsequently, different concentrations of pNPG solution were added and incubated at 37 °C for 20 min. Finally, sodium carbonate solution (50 μL, […]) was added to terminate the reaction. Colorimetry was performed at 405 nm using a spectrophotometer to determine the change in absorbance of the enzymatic reaction system. The reversible inhibitory effect types of sanggenone D and kuwanon G on the enzyme were analyzed by the Lineweaver–Burk equation. The relevant parameters were calculated using Formulas (2)–(4).\nIn the formula, V represents the reaction rate, and Vm represents the maximum reaction rate. [I] is the concentration of the compound sample, and [S] is the substrate concentration. Km represents the Michaelis constant, and KI and KIS represent the inhibitory constants of the compound sample on α-glucosidase and the α-glucosidase–substrate complex, respectively."}, "α-glucosidase [4]": {"system": "α-glucosidase", "test": "Fluorescence quenching spectroscopy (Stern–Volmer)", "format": "binding", "experimental": "A total of 100 μL of 1 U/mL α-glucosidase extract was mixed with […] of different concentrations (sanggenone D: 0, 1, 5, 10, 20, 50, 60 μg/mL; kuwanon G: 0, 1, 5, 10, 20, 40, 60 μg/mL) and incubated at three temperatures of 298 K, 304 K, and 310 K for 5 min. Then, the mixture were scanned with fluorescence spectroscopy (SpectraMax i3x, Molecular Devices, LLC., San Jose, CA, USA). The excitation wavelength was set at 280 nm, the emission wavelength was 300–500 nm, and the widths of both excitation and emission slits were 5 nm. The fluorescence quenching parameters were calculated according to the following equations.\nStern–Volmer dynamic collision quenching equation:(5) F0/F=1+KSVQ=1+Kqτ0Q (6) lgF0−F/F=lgKa+nlg[Q]\nF0 and F represent the fluorescence intensity peaks of α-glucosidase without and with the compound, respectively; [Q] is the sample concentration; and τ0 is the protein’s average lifetime (10^−8 s)."}, "HepG2 cells [5]": {"system": "HepG2 cells", "test": "CCK-8 toxicity test of HepG2 cells", "format": "cell-based, human", "settings": "24 h", "experimental": "DMEM complete medium was configured with 88% DMEM high glucose medium, 10% fetal bovine serum, 1% double antibodies, and 1% non-essential amino acids. HepG2 cells were seeded in the complete medium and incubated at 37 °C with 5% CO2. When the cell confluence grew to 80–90%, the passage was carried out at a ratio of 1:3. According to the method of Cao et al., a hyperglycemic model was established through insulin induction. HepG2 cells in the logarithmic growth stage were inoculated with 4 × 10^4 cells per well in a 96-well plate and cultured at 37 °C and 5% carbon dioxide for 24 h. After the cell coverage reached 80%, 100 µL of sanggenone D and kuwanon G with different concentrations were added for 24 h. Then, 100 µL CCK-8/complete culture solution (1:9) was added to each well, and the absorbance at 450 nm was measured by an enzymoleter after 1 h of culture. The toxicity test was conducted in triplicate.(8) Cell survival rate (%)=Asample/Acontrol×100%"}, "HepG2 cells [6]": {"system": "HepG2 cells", "test": "Cellular glucose, TC and TG content in high-glucose model HepG2 cells", "format": "cell-based, human", "settings": "20, 80 μg/mL, 24 h, compared with the model group", "experimental": "DMEM complete medium was configured with 88% DMEM high glucose medium, 10% fetal bovine serum, 1% double antibodies, and 1% non-essential amino acids. HepG2 cells were seeded in the complete medium and incubated at 37 °C with 5% CO2. When the cell confluence grew to 80–90%, the passage was carried out at a ratio of 1:3. According to the method of Cao et al., a hyperglycemic model was established through insulin induction.\nThe sample concentration (sanggenone D: 20, 80 μg/mL; kuwanon G: 20, 80 μg/mL) used in this experiment was determined by a CCK8 experiment. HepG2 cells were inoculated with 2 × 10^5 in a 12-well plate and cultured for 24 h. After being attached to the well, the samples containing different concentrations were replaced and the cells were treated for 24 h. The relevant indexes were determined by the kit method according to the instructions of the manufacturer. Each measurement was performed in triplicate."}, "GLUT4": {"system": "GLUT4", "test": "Western blotting, GLUT4 expression in HepG2 cells", "format": "cell-based, human", "settings": "compared with the model group", "experimental": "The tissue proteins were extracted with cold total protein extraction buffer (TPEB) [98% RIPA buffer (Solarbio, Beijing, China), 1% phosphatase inhibitor mix (Sangon Biotech, Shanghai, China), and 1% protease inhibitor mix (Cell Signaling Technology, Danvers, MA, USA)], and protein concentration was determined by the bicinchoninic acid assay (BCA) method. A total of 20 μg of protein samples were separated by SDS-PAGE and transferred to a polyvinylidene difluoride (PVDF) membrane. The membrane was washed with PBST for 5 min, then incubated with 5% skim milk at room temperature for 1 h. Subsequently, the membrane was cleaned with PBST five times for 5 min and incubated overnight at 4 °C with the primary antibodies [ACC (Zenbio #381131; 1:750 dilution), AMPK (Zenbio #380431; 1:500 dilution), p-AMPK (Zenbio #340763; 1:750 dilution), CPT-1 (proteintech #15184-1-AP 1:3000 dilution), and GLUT4 (Zenbio #347063; 1:1000 dilution)]. Finally, the membrane was incubated with the secondary antibody (Abmart #T40104, 1:3000 dilution) at room temperature for 1 h. Chemiluminescent visualization of the protein bands was achieved using an ECL system (Millipore, Burlington, MA, USA) and documented with Image Lab software for PC Version 6.1 (Bio-Rad, South Granville, NSW, Australia). Densitometric analysis of the resulting bands was conducted using ImageJ 2 software."}, "p-AMPK": {"system": "p-AMPK", "test": "Western blotting, p-AMPK in HepG2 cells", "format": "cell-based, human", "settings": "compared with the model group"}, "CPT-1": {"system": "CPT-1", "test": "Western blotting, CPT-1 expression in HepG2 cells", "format": "cell-based, human"}},
  "note": "pIC50, pKi: −log10 of the molar value. “Also recorded” adds a separate entry of the source.",
  "data": [
    {"smiles": "COc1cc(/C=C/C(=O)O)ccc1O", "note": "[ferulic acid]", "values": [
      {"measurement": "IC50 for α-glucosidase", "setting": "α-glucosidase [1]", "value": 866, "unit": "µg/mL"}
    ]},
    {"smiles": "CC(C)=CCc1c(-c2ccc(O)cc2O)oc2c([C@H]3C=C(C)C[C@@H](c4ccc(O)cc4O)[C@@H]3C(=O)c3ccc(O)cc3O)c(O)cc(O)c2c1=O", "note": "[kuwanon G]", "values": [
      {"measurement": "pIC50", "setting": "α-glucosidase [2]", "value": 4.42},
      {"measurement": "Inhibition type", "setting": "α-glucosidase [3]", "value": "competitive inhibition type"},
      {"measurement": "pKi", "setting": "α-glucosidase [3]", "value": 4.08},
      {"measurement": "KSV", "setting": "α-glucosidase [4]; 298 K", "value": "5.41 ± 0.01 ×10^4 L/mol"},
      {"measurement": "Ka", "setting": "α-glucosidase [4]; 298 K", "value": "36.85 ± 0.17 ×10^3 L/mol"},
      {"measurement": "Kq", "setting": "α-glucosidase [4]; 298 K", "value": "5.41 ± 0.01 ×10^12 L/mol"},
      {"measurement": "KSV", "setting": "α-glucosidase [4]; 304 K", "value": "4.91 ± 0.03 ×10^4 L/mol"},
      {"measurement": "Ka", "setting": "α-glucosidase [4]; 304 K", "value": "194.98 ± 0.42 ×10^3 L/mol"},
      {"measurement": "Kq", "setting": "α-glucosidase [4]; 304 K", "value": "4.91 ± 0.03 ×10^12 L/mol"},
      {"measurement": "KSV", "setting": "α-glucosidase [4]; 310 K", "value": "3.35 ± 0.01 ×10^4 L/mol"},
      {"measurement": "Ka", "setting": "α-glucosidase [4]; 310 K", "value": "1984.27 ± 0.33 ×10^3 L/mol"},
      {"measurement": "Kq", "setting": "α-glucosidase [4]; 310 K", "value": "3.35 ± 0.01 ×10^12 L/mol"},
      {"measurement": "Survival percentage of HepG2 cells", "setting": "HepG2 cells [5]; concentration less than 80 μg/mL", "value": "above 90%"},
      {"measurement": "Glucose content in HepG2 cells", "setting": "HepG2 cells [6]", "value": "significantly reduced"},
      {"measurement": "TC content in HepG2 cells", "setting": "HepG2 cells [6]", "value": "significantly reduced"},
      {"measurement": "TG content in HepG2 cells", "setting": "HepG2 cells [6]", "value": "significantly reduced"},
      {"measurement": "GLUT4 expression", "setting": "GLUT4", "value": "notably up-regulated"},
      {"measurement": "p-AMPK", "setting": "p-AMPK", "value": "significantly promoted"},
      {"measurement": "Expression of CPT-1", "setting": "CPT-1", "value": "significantly upregulated"}
    ]},
    {"smiles": "CC(C)=CCC12Oc3cc(O)ccc3C1(O)Oc1cc(O)c(C3C=C(C)CC(c4ccc(O)cc4O)C3C(=O)c3ccc(O)cc3O)c(O)c1C2=O", "note": "(centres unmarked) [sanggenone D]", "values": [
      {"measurement": "pIC50", "setting": "α-glucosidase [2]", "value": 4.35},
      {"measurement": "Inhibition type", "setting": "α-glucosidase [3]", "value": "non-competition/anti-competition mixed inhibition; also recorded: mixed inhibition of noncompetitive and anticompetitive"},
      {"measurement": "pKi", "setting": "α-glucosidase [3]", "value": 3.60},
      {"measurement": "KSV", "setting": "α-glucosidase [4]; 298 K", "value": "3.90 ± 0.04 ×10^4 L/mol"},
      {"measurement": "Ka", "setting": "α-glucosidase [4]; 298 K", "value": "7.28 ± 0.21 ×10^3 L/mol"},
      {"measurement": "Kq", "setting": "α-glucosidase [4]; 298 K", "value": "3.90 ± 0.04 ×10^12 L/mol"},
      {"measurement": "KSV", "setting": "α-glucosidase [4]; 304 K", "value": "3.24 ± 0.02 ×10^4 L/mol"},
      {"measurement": "Ka", "setting": "α-glucosidase [4]; 304 K", "value": "16.73 ± 0.14 ×10^3 L/mol"},
      {"measurement": "Kq", "setting": "α-glucosidase [4]; 304 K", "value": "3.24 ±0.02 ×10^12 L/mol"},
      {"measurement": "KSV", "setting": "α-glucosidase [4]; 310 K", "value": "2.56 ± 0.02 ×10^4 L/mol"},
      {"measurement": "Ka", "setting": "α-glucosidase [4]; 310 K", "value": "180.18 ± 0.30 ×10^3 L/mol"},
      {"measurement": "Kq", "setting": "α-glucosidase [4]; 310 K", "value": "2.56 ±0.02 ×10^12 L/mol"},
      {"measurement": "Survival percentage of HepG2 cells", "setting": "HepG2 cells [5]; concentration less than 100 μg/mL", "value": "above 90%"},
      {"measurement": "Glucose content in HepG2 cells", "setting": "HepG2 cells [6]", "value": "significantly reduced"},
      {"measurement": "TC content in HepG2 cells", "setting": "HepG2 cells [6]", "value": "significantly reduced"},
      {"measurement": "TG content in HepG2 cells", "setting": "HepG2 cells [6]", "value": "significantly reduced"},
      {"measurement": "GLUT4 expression", "setting": "GLUT4", "value": "notably up-regulated"},
      {"measurement": "Expression of CPT-1", "setting": "CPT-1", "value": "significantly upregulated"}
    ]}
  ]
}
